The compounds below were run against T1, Lipoprotein-Related Phospholipase A2 (Lp-PLA2) in Human Plasma (Homo sapiens, UniProt Q13093) (assay: Determination of Lp-PLA2 in human plasma (Thio-PAF assay)). Settings: mixed human plasma, 2-thio-PAF substrate, 30 minutes pre-incubation at room temperature.
T1 construct: 40 μL of equally-divided and thawed mixed human plasma is pre-added; from tissue; host or cells: mixed (pooled) human plasma
T1 sequence (Q13093 22-441): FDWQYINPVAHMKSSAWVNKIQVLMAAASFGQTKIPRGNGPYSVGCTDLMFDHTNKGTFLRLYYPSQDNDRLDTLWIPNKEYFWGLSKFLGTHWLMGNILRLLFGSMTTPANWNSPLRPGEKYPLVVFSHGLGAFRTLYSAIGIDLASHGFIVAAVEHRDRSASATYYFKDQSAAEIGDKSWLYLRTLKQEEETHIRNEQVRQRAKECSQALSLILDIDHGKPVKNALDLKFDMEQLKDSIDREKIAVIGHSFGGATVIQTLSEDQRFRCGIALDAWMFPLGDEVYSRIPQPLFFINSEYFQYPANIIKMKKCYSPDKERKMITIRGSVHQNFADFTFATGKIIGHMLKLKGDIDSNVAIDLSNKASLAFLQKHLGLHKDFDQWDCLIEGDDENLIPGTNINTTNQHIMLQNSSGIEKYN
Type: biochemical
Excerpt: Determination of Lipoprotein-Related Phospholipase A2 (Lp-PLA2) in Human Plasma.
Human plasma determination utilizes a thioester analogue of phosphatidylcholine (PAF), where hydrolysis leads to the formation of phospholipids containing free thiol groups. The amount of the thiol groups is continuously determined by reacting with CPM (7-diethylamino-3-(4′-maleimidophenyl)-4-methylcoumarin), which is maleimide with increased fluorescence after Michael addition of the thiol groups. This determination can detect the activity of Lp-PLA2 in human plasma, for example, determined by the specific inhibition of the Lp-PLA2 inhibitors.
Thio-PAF determination, as quenched 75 μL determination, is carried out. A compound source plate is prepared by preparing a 1:3 (volume) series of diluents of each compound in pure DMSO on a 96-well microplate. A Rainin multi-channel pipette is used to transfer 3 μL of a compound on the compound source plate into a 96-well microplate where 57 μL of a determination buffer is pre-added, and the compound on the source plate is diluted by 20 folds. The above determination buffer contains 50 mM HEPES (pH 7.4), 150 mM NaCl, and 1 mM CHAPS. A Rainin multi-channel pipette is used to transfer 1 μL of the compound subjected to 20-fold dilution into a 96-well Greiner 655076 (black) microplate where 40 μL of equally-divided and thawed mixed human plasma is pre-added. The plate is oscillated for 20 seconds in an Elisa plate oscillator to be mixed evenly. After 30 minutes of pre-incubation at the room temperature, a Rainin multi-channel pipette is used to add 10 μL of a substrate solution to a 96-well Greiner 655076 (black) microplate, and the substrate solution contains 2.5 mM 2-thio-PAF [from ethanol mother liquor], 32 μM CPM [from DMSO mother liquor] and 3.2 mM NEM (N-ethylmaleimide) [newly prepared in DMSO for each experiment] in a determination buffer composed of 50 mM HEPES (pH 7.4), 150 mM NaCl, and 1 mM CHAPS. After 2 minutes, 25 μL of a 5% trifluoroacetic acid (TFA) aqueous solution is used for quenching the reaction. The plate is centrifuged at 2000 rpm for 1 minute. A Biotek Synergy H1 (H1MF) Elisa reader is used to read the plate at ex:380/em:485. GraphPad Prism 6.0 and Excel are used for IC50 data, curve, and QC analysis.

Row | Structure (SMILES) | IC50
1 | CCC12CCCN1c1cc(OCc3cc(F)c(Oc4ccc(Cl)c(C(F)(F)F)c4)c(F)c3)nc(=O)n1CC2 (stereo not drawn) [Example 39, 2-((4-(4-chloro-3-(trifluoromethyl)phenoxy)-3,5-difluorobenzyl)oxy)-7a-ethyl-6,7,7a,8,9, 10-hexahydro-4H-pyrimidinyl[1,6-a] pyrrolo[1,2-c] pyrimidine-4-one] | 33.1 nM
2 | CCC12CCCN1c1cc(OCCc3ccc(Oc4ccc(Cl)c(C(F)(F)F)c4)cc3)nc(=O)n1CC2 (stereo not drawn) [Example 41, 2-(4-(4-chloro-3-(trifluoromethyl)phenoxy)phenyl-ethoxy)-7a-ethyl-6,7,7a, 8,9,10-hexahydro-4H-pyrimidine [1,6-a]pyrrole[1,2-c]pyrimidine-4-one] | 235 nM
3 | O=c1nc(OCc2ccc(Oc3ccnc(C(F)(F)F)c3)c(F)c2)cc2n1CCC1CCCCN21 (stereo not drawn) [Example 42, 2-((3-fluoro-4-((2-(trifluoromethyl)pyrid-4-yl)oxy)benzyl)oxy)-7,7a,8,9,10,11-hexahydro-4H,6H-pyridine[1,2-c]pyrimidine[1,6-a]pyrimidine-4-one] | 24.4 nM
4 | O=c1nc(OCc2cc(F)c(Oc3ccc(Cl)c(C(F)(F)F)c3)c(F)c2)cc2n1CCC1CCCCN21 (stereo not drawn) [Example 43, 2-((4-(4-chloro-3-(trifluoromethyl)phenoxy)-3,5-di-fluorobenzyl)oxy)-7,7a,8,9,10,11-hexahydro-4H,6H-pyri-dyl[1,2-c]pyrimido [1,6-a]pyrimidine-4-one] | 11.9 nM
5 | N#Cc1cc(COc2cc3n(c(=O)n2)CCC2CCCCN32)ccc1Oc1cccc(C(F)(F)F)c1 (stereo not drawn) [Example 44] | 14.9 nM
6 | O=c1nc(OCc2cc(F)c(Oc3cnc(C(F)(F)F)nc3)c(F)c2)cc2n1CCC1CCCCN21 (stereo not drawn) [Example 45, 2-((3,5-difluoro-4-((2-(trifluoromethyl)pyrimidin-5-yl)oxy)benzyl)oxy)-7,7a,8,9,10,11-hexahydro-4H,6H-pyridino[1,2-c]pyri-mido[1,6-a] pyrimidine-4-one] | 66.5 nM
7 | O=c1nc(OCCc2ccc(Oc3ccc(Cl)c(C(F)(F)F)c3)cc2)cc2n1CCC1CCCCN21 (stereo not drawn) [Example 46, 2-(4-(4-chloro-3-(trifluoromethyl)phenoxy)phenylethoxy)-7,7a,8,9,10,11-hexahydro-4H, 6H-pyridyl[1,2-c] pyrimidinyl[1,6-a] pyrimidine-4-one] | 220 nM
8 | O=c1nc(OCc2ccc(Oc3ccnc(C(F)(F)F)c3)c(F)c2)cc2n1CC[C@@H]1CCCCN21 [Example 47, (S)-2-((3-fluoro-4-((2-(trifluoromethyl)pyrid-4-yl)oxy)benzyl)oxy)-7,7a, 8,9,10,11-hexahydro-4H,6H-pyridino[1,2-c] pyrimidine[1,6-a] pyrimidine-4-one] | 14.6 nM
9 | Cc1cc(Oc2c(F)cc(COc3cc4n(c(=O)n3)CCC3(C)CCCCN43)cc2F)ccn1 (stereo not drawn) [Example 50, 2-((3,5-difluoro-4-((2-methylpyrid-4-yl)oxy)benzyl)oxy)-7a-methyl-7,7a,8,9,10,11-hexahydro-4H,6H-pyridino [1,2-c]pyrimidine [1,6-a]pyrimidine-4-one] | 12.9 nM
10 | O=c1nc(OCc2cc(F)c(Oc3cnc(C(F)(F)F)nc3)c(F)c2)cc2n1CCC1COCCN21 (stereo not drawn) [Example 55] | 13.7 nM
11 | O=c1nc(OCCc2ccc(Oc3ccc(Cl)c(C(F)(F)F)c3)cc2)cc2n1CCC1COCCN21 (stereo not drawn) [Example 56, 2-(4-(4-chloro-3-(trifluoromethyl)phenoxy)phenyl-ethoxy)-6,7,7a,8,10,11-hexahydro-4H-pyrimidinyl [6′,1′:2,3] pyrimidinyl[6,1-c] [1,4]oxazin-4-one] | 20.1 nM
12 | CCc1c(OCc2ccc(Oc3ccnc(C(F)(F)F)c3)c(F)c2)nc(=O)n2c1N1C[C@@H]3C[C@@]1(CC2)CO3 [Example 60, (7aS,10S)-1-ethyl-2-((3-fluoro-4-((2-(trifluoromethyl)pyrid-4-yl)oxy)benzyl)oxy)-6,7,10, 11-tetrahydro-4H, 8H-7a,10-methyl-pyrimidinyl [6′,1′:2,3] pyrimidinyl[6,1-c] [1,4]oxazin-4-one] | 12.2 nM

Now those with a lower IC50, led by results:

Row | IC50 | Structure (SMILES)
13 | 8.1 nM | CCC12CCCN1c1cc(OCc3cc(F)c(Oc4ccnc(C(F)(F)F)c4)c(F)c3)nc(=O)n1CC2 (stereo not drawn) [Example 38, 2-((3,5-difluoro-4-((2-(trifluoromethyl)pyrid-4-yl)oxy)benzyl)oxy)-7a-ethyl-6,7,7a,8,9,10-hexahydro-4H-pyrimido[1,6-a] pyrrolo[1,2-c] pyrimidine-4-one]
14 | 10.7 nM | CCC12CCCN1c1cc(OCc3ccc(Oc4cccc(C(F)(F)F)c4)c(C#N)c3)nc(=O)n1CC2 (stereo not drawn) [Example 40]
15 | 5.1 nM | COc1c(OCc2ccc(Oc3ccnc(C(F)(F)F)c3)c(F)c2)nc(=O)n2c1N1CCCC[C@H]1CC2 [Example 48]
16 | 1.6 nM | CC12CCCCN1c1cc(OCc3ccc(Oc4ccnc(C(F)(F)F)c4)c(F)c3)nc(=O)n1CC2 (stereo not drawn) [Example 49, 2-((3-fluoro-4-((2-(trifluoromethyl)pyrid-4-yl)oxy)benzyl)oxy)-7a-methyl-7,7a,8,9,10,11-hexahydro-4H,6H-pyridino[1,2-c] pyrimidine[1,6-a] pyrimidine-4-one]
17 | 6.6 nM | O=c1nc(OCc2cc(F)c(Oc3ccnc(C(F)(F)F)c3)c(F)c2)cc2n1CCC1COCCN21 (stereo not drawn) [Example 51, 2-((3,5-difluoro-4-((2-(trifluoromethyl)pyrid-4-yl)oxy)benzyl)oxy)-6,7,7a,8,10,11-hexahydro-4H-pyrimidinyl [6′,1′:2,3]pyrimidine [6,1-c][1,4] oxazin-4-one]
18 | 10.6 nM | O=c1nc(OCc2cc(F)c(Oc3ccc(Cl)c(C(F)(F)F)c3)c(F)c2)cc2n1CCC1COCCN21 (stereo not drawn) [Example 52, 2-((4-(4-chloro-3-(trifluoromethyl)phenoxy)-3,5-di-fluorobenzyl)oxy)-6,7,7a,8,10,11-hexahydro-4H-pyrimidinyl [6′,1′:2,3] pyrimido[6,1-c][1,4] oxazin-4-one]
19 | 7.3 nM | N#Cc1cc(COc2cc3n(c(=O)n2)CCC2COCCN32)ccc1Oc1cccc(C(F)(F)F)c1 (stereo not drawn) [Example 53]
20 | 5.3 nM | O=c1nc(OCc2cc(F)c(Oc3ccnc(OC(F)(F)F)c3)c(F)c2)cc2n1CCC1COCCN21 (stereo not drawn) [Example 54, 2-((3,5-difluoro-4-((2-(trifluoro-methoxy)pyrid-4-yl)oxy)benzyl)oxy)-6,7,7a,8,10,11-hexahydro-4H-pyrimidinyl [6′,1′:2,3] pyrimidine [6,1-c][1,4] oxazin-4-one]
21 | 3.3 nM | O=c1nc(OCc2ccc(Oc3ccnc(C(F)(F)F)c3)c(F)c2)c(F)c2n1CC[C@]13CO[C@H](CN21)C3 [Example 57, (7aS,10S)-1-fluoro-2-((3-fluoro-4-((2-(trifluoromethyl)pyrid-4-yl)oxy)benzyl)oxy)-6,7,10, 11-tetrahydro-4H, 8H-7a,10-methyl-pyrimidinyl[6′,1′: 2,3]pyrimidinyl [6,1-c][1,4]oxazin-4-one]
22 | 3.4 nM | O=c1nc(OCc2ccc(Oc3ccnc(C(F)(F)F)c3)c(F)c2)c(Cl)c2n1CC[C@]13CO[C@H](CN21)C3 [Example 58, (7aS,10S)-1-chloro-2-((3-fluoro-4-((2-(trifluoromethyl)pyrid-4-yl)oxy)benzyl)oxy)-6,7,10, 11-tetrahydro-4H, 8H-7a,10-methyl-pyrimidinyl[6′,1′: 2,3]pyrimidinyl [6,1-c][1,4]oxazin-4-one]
23 | 5.1 nM | Cc1c(OCc2ccc(Oc3ccnc(C(F)(F)F)c3)c(F)c2)nc(=O)n2c1N1C[C@@H]3C[C@@]1(CC2)CO3 [Example 59, (7aS,10S)-2-((3-fluoro-4-((2-(trifluoromethyl)pyrid-4-yl)oxy)benzyl)oxy)-1-methyl-6,7,10, 11-tetrahydro-4H, 8H-7a,10-methyl-pyrimidinyl[6′,1′: 2,3]pyrimidinyl [6,1-c][1,4]oxazin-4-one]
24 | 7 nM | O=c1nc(OCc2cc(F)c(Oc3ccnc(Cl)c3)c(F)c2)c(F)c2n1CC[C@]13CO[C@H](CN21)C3 [Example 61, (7aS, 10S)-2-((4-((2-chloropyrid-4-yl)oxy)-3,5-difluorobenzyl)oxy)-1-fluoro-6,7,10,11-tetrahydro-4H,8H-7a, 10-methylamino-pyrimidine[6′,1′:2,3] pyrimidine[6,1-c] [1,4]oxazin-4-one]
